Source: ChEMBL document CHEMBL3745645, “Synthesis, in vitro antitumor activity, dihydrofolate reductase inhibition, DNA intercalation and structure-activity relationship studies of 1,3,5-triazine analogues” (Bioorg Med Chem Lett, 2016)
Calls of active or inactive are those of the source. The rule behind the calls is not given here.

Key:
[1] = Cytotoxicity against human SNB75 cells at 10 uM after 48 hrs by SRB assay; assay type: functional; conditions: SNB-75, 48 h, read-out: GI
HT-29 = assay: Cytotoxicity against human HT-29 cells at 10 uM after 48 hrs by SRB assay; assay type: functional
NCI-H226 = assay: Cytotoxicity against human NCI-H226 cells at 10 uM after 48 hrs by SRB assay; assay type: functional
KM12 = assay: Cytotoxicity against human KM12 cells at 10 uM after 48 hrs by SRB assay; assay type: functional
CCRF-CEM = assay: Cytotoxicity against human CCRF-CEM cells at 10 uM after 48 hrs by SRB assay; assay type: functional
NCI-H460 = assay: Cytotoxicity against human NCI-H460 cells at 10 uM after 48 hrs by SRB assay; assay type: functional
Malme-3M = assay: Cytotoxicity against human MALME-3M cells at 10 uM after 48 hrs by SRB assay; assay type: functional
[2] = Cytotoxicity against human HCT116 cells at 10 uM after 48 hrs by SRB assay; assay type: functional; conditions: HCT-116, 48 h, read-out: GI
[3] = Cytotoxicity against human MOLT4 cells at 10 uM after 48 hrs by SRB assay; assay type: functional; conditions: MOLT-4, 48 h, read-out: GI
[4] = Cytotoxicity against human SF539 cells at 10 uM after 48 hrs by SRB assay; assay type: functional; conditions: SF-539, 48 h, read-out: GI
[5] = Cytotoxicity against human SNB19 cells at 10 uM after 48 hrs by SRB assay; assay type: functional; conditions: SNB-19, 48 h, read-out: GI
[6] = Cytotoxicity against human OVCAR8 cells at 10 uM after 48 hrs by SRB assay; assay type: functional; conditions: OVCAR-8, 48 h, read-out: GI
NCI-H522 = assay: Cytotoxicity against human NCI-H522 cells at 10 uM after 48 hrs by SRB assay; assay type: functional
[7] = Cytotoxicity against human OVCAR3 cells at 10 uM after 48 hrs by SRB assay; assay type: functional; conditions: OVCAR-3, 48 h, read-out: GI
[8] = Cytotoxicity against human UO31 cells at 10 uM after 48 hrs by SRB assay; assay type: functional; conditions: UO-31, 48 h, read-out: GI
SN12C = assay: Cytotoxicity against human SN12C cells at 10 uM after 48 hrs by SRB assay; assay type: functional
[9] = Cytotoxicity against human IGROV1 cells at 10 uM after 48 hrs by SRB assay; assay type: functional; conditions: IGROV-1, 48 h, read-out: GI
U-251 = assay: Cytotoxicity against human U251 cells at 10 uM after 48 hrs by SRB assay; assay type: functional
[10] = Cytotoxicity against human SF268 cells at 10 uM after 48 hrs by SRB assay; assay type: functional; conditions: SF-268, 48 h, read-out: GI
786-0 = assay: Cytotoxicity against human 786-0 cells at 10 uM after 48 hrs by SRB assay; assay type: functional
SR [11] = assay: Cytotoxicity against human SR cells at 10 uM after 48 hrs by SRB assay; assay type: functional
SK-MEL-5 = assay: Cytotoxicity against human SK-MEL-5 cells at 10 uM after 48 hrs by SRB assay; assay type: functional
NCI-H322M = assay: Cytotoxicity against human NCI-H322M cells at 10 uM after 48 hrs by SRB assay; assay type: functional; conditions: read-out: GI
MCF7 = assay: Cytotoxicity against human MCF7 cells at 10 uM after 48 hrs by SRB assay; assay type: functional; conditions: MCF7, 48 h, read-out: GI
[12] = Cytotoxicity against human Caki1 cells at 10 uM after 48 hrs by SRB assay; assay type: functional; conditions: CAKI-1, 48 h, read-out: GI
[13] = Cytotoxicity against human RXF393 cells at 10 uM after 48 hrs by SRB assay; assay type: functional; conditions: RXF 393, 48 h, read-out: GI
T47D = assay: Cytotoxicity against human T47D cells at 10 uM after 48 hrs by SRB assay; assay type: functional
[14] = Cytotoxicity against human SKOV3 cells at 10 uM after 48 hrs by SRB assay; assay type: functional; conditions: SK-OV-3, 48 h, read-out: GI
MDA-MB-231 = assay: Cytotoxicity against human MDA-MB-231 cells at 10 uM after 48 hrs by SRB assay; assay type: functional
A498 = assay: Cytotoxicity against human A498 cells at 10 uM after 48 hrs by SRB assay; assay type: functional
[15] = Cytotoxicity against human DU145 cells at 10 uM after 48 hrs by SRB assay; assay type: functional; conditions: DU-145, 48 h, read-out: GI
[16] = Cytotoxicity against human HOP62 cells at 10 uM after 48 hrs by SRB assay; assay type: functional; conditions: HOP-62, 48 h, read-out: GI
MDA-MB-468 = assay: Cytotoxicity against human MDA-MB-468 cells at 10 uM after 48 hrs by SRB assay; assay type: functional
[17] = Cytotoxicity against human HL-60(TB) cells after 48 hrs by SRB assay; assay type: functional; conditions: HL-60, 48 h, read-out: LC50 (the source's name)
SR [18] = assay: Cytotoxicity against human SR cells after 48 hrs by SRB assay; assay type: functional
[19] = Cytotoxicity against human MOLT4 cells after 48 hrs by SRB assay; assay type: functional; conditions: MOLT-4, 48 h, read-out: LC50 (the source's name)
SK-MEL-28 = assay: Cytotoxicity against human SK-MEL-28 cells at 10 uM after 48 hrs by SRB assay; assay type: functional
[20] = Cytotoxicity against human RPMI8226 cells after 48 hrs by SRB assay; assay type: functional; conditions: RPMI-8226, 48 h, read-out: LC50 (the source's name)
Dihydrofolate reductase = target: T1, Dihydrofolate reductase (Homo sapiens, UniProt P00374); assay: Inhibition of human recombinant DHFR expressed in Escherichia coli by spectrophotometric analysis
T1 sequence (P00374 whole entry): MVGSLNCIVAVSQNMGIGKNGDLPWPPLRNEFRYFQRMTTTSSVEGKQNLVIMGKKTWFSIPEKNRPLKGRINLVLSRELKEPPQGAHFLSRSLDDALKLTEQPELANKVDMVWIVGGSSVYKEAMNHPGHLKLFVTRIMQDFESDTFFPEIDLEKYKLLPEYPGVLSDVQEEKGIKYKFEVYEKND

Calf thymus DNA = assay: Binding affinity to calf thymus DNA by fluorescence spectrophotometric analysis; assay type: nucleic-acid assay; conditions: Bos taurus
[21] = Cytotoxicity against human IGROV1 cells after 48 hrs by SRB assay; assay type: functional; conditions: IGROV-1, 48 h, pooled result: one value given for 7 cell lines, strains, targets or settings
[22] = Cytotoxicity against human COLO205 cells after 48 hrs by SRB assay; assay type: functional; conditions: COLO 205, 48 h, pooled result: one value given for 7 cell lines, strains, targets or settings

Compound `Cc1nc2ccc(Nc3nc(NCCN)nc(Nc4ccc(F)cc4)n3)cc2n1Cc1ccccc1` has an inhibition of growth at 10 µM [1] of 20%, an inhibition of growth at 10 µM (HT-29; HT-29, 48 h, read-out: GI) of 55.5% and an inhibition of growth at 10 µM (NCI-H226; NCI-H226, 48 h, read-out: GI) of 13.8%. The inhibition of growth at 10 µM (KM12; KM12, 48 h, read-out: GI) was 26.8%, the inhibition of growth at 10 µM (CCRF-CEM; read-out: GI) was 51.9% and the inhibition of growth at 10 µM (NCI-H460; NCI-H460, 48 h, read-out: GI) was 21.8%. For the same compound, the inhibition of growth at 10 µM (Malme-3M; read-out: GI) was 26%, the inhibition of growth at 10 µM [2] was 39.7% and the inhibition of growth at 10 µM [3] was 40.7%. It also gave an inhibition of growth at 10 µM [4] of 0.19%, an inhibition of growth at 10 µM [5] of 10.1% and an inhibition of growth at 10 µM [6] of 17.7%. For the same compound, the inhibition of growth at 10 µM (NCI-H522; NCI-H522, 48 h, read-out: GI) was 31%, the inhibition of growth at 10 µM [7] was 6.85% and the inhibition of growth at 10 µM [8] was 13.7%. The inhibition of growth at 10 µM (SN12C; read-out: GI) was 24.8%, the inhibition of growth at 10 µM [9] was 0.38% and the inhibition of growth at 10 µM (U-251; U-251, 48 h, read-out: GI) was 46.5%. For the same compound, the inhibition of growth at 10 µM [10] was 19.2%, the inhibition of growth at 10 µM (786-0; 786-0, 48 h, read-out: GI) was 20.5% and the inhibition of growth at 10 µM (SR [11]; read-out: GI) was 88.9%. The inhibition of growth at 10 µM (SK-MEL-5; SK-MEL-5, 48 h, read-out: GI) was 25.5%, the inhibition of growth at 10 µM (NCI-H322M) was 7.76% and the inhibition of growth at 10 µM (MCF7) was 39.1%. The inhibition of growth at 10 µM [12] was 1.79%, the inhibition of growth at 10 µM [13] was 25.8% and the inhibition of growth at 10 µM (T47D; read-out: GI) was 23.2%. The inhibition of growth at 10 µM [14] was 13.2%, the inhibition of growth at 10 µM (MDA-MB-231; MDA-MB-231, 48 h, read-out: GI) was 42.9% and the inhibition of growth at 10 µM (A498; A498, 48 h, read-out: GI) was 25.5%. It also gave an inhibition of growth at 10 µM [15] of 8.56%, an inhibition of growth at 10 µM [16] of 20.6% and an inhibition of growth at 10 µM (MDA-MB-468; MDA-MB-468, 48 h, read-out: GI) of 49.5%.

For `Cc1nc2cc(Nc3nc(Nc4ccc(F)cc4)nc(N4CCCC4)n3)ccc2n1Cc1ccccc1`, the “growth inhibition (GI)” value (HT-29) was “Active”, the CC50 [17] was greater than 100 µM and the “growth inhibition (GI)” value (NCI-H226) was “Active”. For the same compound, the “growth inhibition (GI)” value (KM12) was “Active”, the LC50 (concentration killing 50% of cells) (SR [18]) was greater than 100 µM and the “growth inhibition (GI)” value (CCRF-CEM) was “Active”. For the same compound, the “growth inhibition (GI)” value (NCI-H460) was “Active”, the CC50 [19] was greater than 100 µM and the “growth inhibition (GI)” value (SK-MEL-28) was “Active”. The “growth inhibition (GI)” value (Malme-3M) was “Active”, the CC50 [20] was greater than 100 µM and the inhibition of growth at 10 µM [5] was 66.4%. The IC50 (Dihydrofolate reductase) was 0.11 µM, the “growth inhibition (GI)” value (NCI-H522) was “Active” and the Ka (Calf thymus DNA) was 5.46 ×10⁴ /M. The “growth inhibition (GI)” value (SN12C) was “Active”, the GI50 [21] was 1.9 µM and the LC50 (concentration killing 50% of cells) [21] was 11 µM. The TGI [21] was 4.01 µM, the “growth inhibition (GI)” value (U-251) was “Active” and the “growth inhibition (GI)” value (786-0) was “Active”. The “growth inhibition (GI)” value (SR [11]) was “Active”, the “growth inhibition (GI)” value (SK-MEL-5) was “Active” and the inhibition of growth at 10 µM (NCI-H322M) was 78.6%. For the same compound, the inhibition of growth at 10 µM (MCF7) was 97%, the “growth inhibition (GI)” value (T47D) was “Active” and the “growth inhibition (GI)” value (MDA-MB-231) was “Active”. For the same compound, the “growth inhibition (GI)” value (A498) was “Active”, the GI50 [22] was 1.81 µM and the LC50 [22] was 6.93 µM. For the same compound, the TGI [22] was 3.54 µM and the “growth inhibition (GI)” value (MDA-MB-468) was “Active”.
